One molecule from patent US9522928B2, “Mannosylated compounds useful for the prevention and the treatment of infectious diseases” (UNIVERSITE DE STRASBOURG, priority 2011, dated 2016) can be followed below.

Structures are written as SMILES. “Also recorded” adds a separate entry of the source.

One assay has as its system Dengue virus 2 (DV2). As to the kind of experiment: Dengue virus (DV2) cis-infection of human DCs. It counts as cell-based. Here is the method:
Compounds of the invention (TriManC24, TriManinsatC24) were serially diluted in water. Human DCs (2.5×10^5 in 200 μl) in 48-well plates were pre-treated with different concentrations of compounds or culture medium alone, in RPMI 1640 medium […] for 30 min at 37° C. They were exposed to DV-2 at a multiplicity of infection of 1.0, for 2 h at 37° C. Cells were washed and cultured in complete RPMI medium (condition 1) or in complete medium containing the tested compounds (TriManC24, TriMannsatC24) (condition 2). After 48 h, supernatants were titered and cells were subjected to intracellular detection of viral antigens. DCs were fixed with 4% (v/v) paraformaldehyde and permeabilized with 0.1% (v/v) Triton X-100 for 3 min at room temperature. After washing, they were labeled with mouse anti-DV type 2 monoclonal antibody (3H5.1, Millipore) and stained with APC -conjugated rat anti-mouse IgG1. Fluorescence intensity of the cells was analyzed by flow cytometry (FACSCalibur, Becton Dickinson), using the Cell Quest Pro software.
There are four different dengue serotypes (1-4), and we have used DV type 2 (DV2) to further investigate the ability of the compounds of the invention (TriManC24 and TriManinsatC24) to inhibit the infection of human DCs. These cells were pre-treated with different concentrations of compounds or culture medium alone, for 30 min at 37° C. They were then exposed to DV2 for 2 hours at 37° C. Cells were washed to remove excess virions and compounds, and further cultured either in the absence (condition 1) or in the presence (condition 2) of the tested compounds. After 48 hours, cells were subjected to intracellular detection of viral antigens, and supernatants were titrated (not shown). […] FIG. 3A and FIG. 3B show the percentage of infected DCs when incubated with distinct concentrations of TriManinsatC24 in condition 1 and in condition 2, respectively. The histograms clearly show the protecting effects of TriManinsatC24, in particular in condition 2 wherein TriManinsatC24 at 10, 50 and 100 μM enabled the percentage of infected DCs to be reduced down to 40%, 20% and 2% respectively.

The test system of the next assay is HIV-1 X4. As to the kind of experiment: HIV-1 X4 trans-infection of MAGI-CCR5 cells mediated by DCs. It counts as cell-based. Here is the method: (§1) ManC1, […] (comparative) and compounds of the invention (ManC24, ManC17, TriManC24, TriDiManC24, TriManinsatC24 and ManinsatC24) were serially diluted in water. Human DCs (1×10^5 in 200 μl ) were pre-treated with different concentrations of compounds, or mannan (Sigma) or culture medium alone, in RPMI 1640 medium containing 10% FBS for 45 min at 37° C., prior infection with HIV-1 (100 ng of p24Gag) for 3 h. Excess free virus and molecules were removed by three washes. DCs were then cocultured with MAGI -CCR5 cells (1×10^5) at 37° C. plated in a 48-well plate. After two days, viral infection of MAGI-CCR5 cells was quantitated following beta-galactosidase assays and enumerating blue cells by light microscopy.
(§2) The IC50 were determined by serial dilution of each compound. The trans-infection assays were repeated a minimum of three times, and the IC50 determined using KaleidaGraph.
To investigate the ability of the compounds of the invention to inhibit HIV-1 trans infection, we chose to infect human DCs in order to best mimic in vivo conditions. […] This procedure allows precise quantification of HIV-1 replication in reporter MAGI-CCR5 cells by detection of beta-galactosidase activity. […] Upon viral entry leading to viral Tat expression and activation of the LTR, these cells permit quantification of HIV trans-infection after two days.

Another assay has as its system HIV-1 R5. Nature of the assay: HIV-1 R5 trans-infection of MAGI-CCR5 cells mediated by DCs. It counts as cell-based. On the procedure: as §1, §2
To investigate the ability of the compounds of the invention to inhibit HIV-1 trans infection, we chose to infect human DCs in order to best mimic in vivo conditions. Human DCs were exposed to different compounds (namely, Mannan (control), ManC1 (comparative), ManC11 (comparative), ManC17, ManC24, TriManC24, TriDiManC24, ManinsatC24 and TriManinsatC24) for 45 min at 37° C., before inoculation with HIV-1 (strains R5 and X4) for 3 hours. After extensive washings to remove unbound virions and mannosides, DCs were then co-cultured with MAGI-CCR5 cells. This procedure allows precise quantification of HIV-1 replication in reporter MAGI-CCR5 cells by detection of beta-galactosidase activity. These cells express an integrated copy of the HIV long terminal repeat (LTR) fused to the beta-galactosidase reporter gene, and express the CD4 receptor and the CCR5 and CXCR4 co-receptors, required for entry of HIV-1 R5 and X4 respectively. Upon viral entry leading to viral Tat expression and activation of the LTR, these cells permit quantification of HIV trans-infection after two days.

The target in a further assay is T1, DC-SIGN CRD (Homo sapiens, UniProt Q9NNX6).
T1 construct: human DC-SIGN (Lys62-Ala404, from R§D Systems); purchased R&D Systems ('R§D Systems' [sic])
T1 sequence (Q9NNX6 62-404): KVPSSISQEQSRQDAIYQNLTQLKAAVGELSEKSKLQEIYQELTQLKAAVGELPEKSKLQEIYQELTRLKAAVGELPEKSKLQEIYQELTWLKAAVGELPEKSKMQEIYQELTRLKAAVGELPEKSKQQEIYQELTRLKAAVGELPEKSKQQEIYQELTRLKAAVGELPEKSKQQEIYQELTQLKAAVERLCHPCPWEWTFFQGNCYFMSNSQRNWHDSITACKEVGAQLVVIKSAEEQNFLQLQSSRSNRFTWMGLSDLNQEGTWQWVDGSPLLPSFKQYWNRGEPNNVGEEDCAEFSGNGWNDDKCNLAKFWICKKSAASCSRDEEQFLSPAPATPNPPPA
As to the kind of experiment: Surface plasmon resonance (SPR) binding to immobilised DC-SIGN CRD. Conditions: Kd=koff/kon. Here is the method:
SPR experiments were performed using a Biacore 3000. […] Biosensor assays were performed with HEPES-buffered saline (10 mM HEPES, 150 mM sodium chloride, pH 7.4) containing 0.005% surfactant P20 and 5 mM CaCl2 as a running buffer. All binding experiments were carried out at 25° C. with a constant flow rate of 20 μl/min. The different compounds dissolved in the running buffer (0.39 to 50 μM) were injected for 3 min, followed by a dissociation phase of 3 min. The sensor chip surface was regenerated after each experiment by injecting 10 μL of EDTA 0.5 M pH 8.0. A simple channel activated by EDC/NHS and deactivated with ethanolamine was used as control. The kinetic parameters were calculated using the BlAeval 4.1 software. Analysis was performed using the simple Langmuir binding model with separate ka/kd (kon/koff). The specific binding profiles were obtained after subtracting the response signal from the control channel and from blank-buffer injection. The fitting to each model was judged by the chi square value and randomness of residue distribution compared to the theoretical model (Langmuir binding 1:1).
The binding affinity of mannoside derivatives for the carbohydrate recognition domain (CRD) of DC-SIGN was assessed by surface plasmon resonance (SPR).
A CM5 sensor chip was functionalized with the DC-SIGN CRD, and increasing concentrations of the various compounds, mannan as a positive control and octaethyleneglycol (OEG) as a negative control, were injected over the chip surface. The association (kon) and dissociation (koff) rate constants and the resulting dissociation equilibrium constant (Kd=koff/kon) for each assessed compound were determined (see Table 1 hereunder).
A general note: Surface plasmon resonance follows binding to a sensor surface in real time, without labels.

As to `CCCCCCCCCCCCCCCCCCCCCCCCC(=O)NC(COCCC(=O)NCCOCCOCCOCCOC1OC(CO)C(O)C(O)C1O)(COCCC(=O)NCCOCCOCCOCCOC1OC(CO)C(O)C(O)C1O)COCCC(=O)NCCOCCOCCOCCOC1OC(CO)C(O)C(O)C1O` (centres unmarked) [TriManC24], in the assay with Dengue virus 2 (DV2), the “inhibition of Dengue virus infection of DCs (in words)” value is “able to inhibit the direct infection of DCs by Dengue virus”. For the same molecule, the “residual level of trans-infection” value in the assay with HIV-1 X4 was 15%. Besides, the “residual level of trans-infection” value in the assay with HIV-1 R5 was 20%. Also, on DC-SIGN CRD, the “KD (μM)” value is “low micromolar range; also recorded: Sub-micromolar” and the Kd turned out to be 3.19 µM.

Usually Kd stands for the constant that tells how readily two partners part at equilibrium.
